# From patent publication US11596623B2, “Methods for treating virus infection or proliferation” (HOWARD UNIVERSITY, priority 2018, dated 2023)
# pKd: −log10 of the molar value.
# How the values were obtained:
# HSV-1 = HSV-1 viral protein western blot in HEp-2 cells; type: cell-based; conditions: pre-treated 24 hours at 100 μM; 24 h after infection
# From the text: Panel A of FIG. 3 depicts time and concentration dependent virus protein expression to deduce an optimum drug treatment regimen. […] Tubulin expression was used as the loading control for the blots.
# HEp-2 cells (ATCC) were used for the infection of HSV-1. The cells were maintained in Dulbecco's Modified Eagle's medium (DMEM) supplemented with 10% fetal calf serum (FCS) and 1% penicillin-streptomycin (PS). Wild-type HSV-1 17 was obtained from R. D. Everett and used previously
# Proteins were separated by SDS-PAGE (25 μg loaded in each lane), transferred to nitrocellulose membranes (Amersham Inc., Piscataway, N.J., USA), and blocked with 5% nonfat milk for 60 min at room temperature. Membranes were incubated overnight at 4° C. with primary antibody, followed by incubation with a horseradish peroxidase-coupled secondary antibody and detection with enhanced chemiluminescence (Pierce, Rockford, Ill., USA), according to standard methods. Membranes were stripped with stripping buffer (100 mM 2-mercaptoethanol, 2% SDS, 62.5 mM Tris-HCl, pH 6.8), washed with PBS-0.1% Tween-20, and used to detect additional proteins. For Arabidopsis lysates one-week old seedlings were treated with 10 uM of ABA in the presence/absence of the inhibitor compounds for 12 hours in a growth chamber (overnight) at 22° C. mostly in the dark. […]
# [1] = biological target: T1, recombinant RACK1A protein (Oryza sativa subsp. japonica, UniProt Q6L4F8); experiment: Surface Plasmon Resonance (SPR) binding assay; parameters: species or system rice; conditions: immobilized recombinant RACK1A, KD50=kd/ka
# T1 construct: His tag (C); made in house; host or cells: E. coli BL21(DE3)
# T1 sequence (Q6L4F8 whole entry): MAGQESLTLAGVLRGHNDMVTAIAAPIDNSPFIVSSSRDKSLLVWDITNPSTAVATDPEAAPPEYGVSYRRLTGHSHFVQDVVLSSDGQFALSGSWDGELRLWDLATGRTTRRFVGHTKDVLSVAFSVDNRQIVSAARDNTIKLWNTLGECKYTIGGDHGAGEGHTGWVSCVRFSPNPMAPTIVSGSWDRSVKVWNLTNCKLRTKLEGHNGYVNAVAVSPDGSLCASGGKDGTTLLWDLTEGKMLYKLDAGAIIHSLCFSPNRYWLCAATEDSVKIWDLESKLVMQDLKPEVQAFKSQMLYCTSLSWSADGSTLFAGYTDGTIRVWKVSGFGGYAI
# Protocol: SD-29 (left panel) and SD-29-12 (right panel) were separately injected three times on the CM5 chip at 0, 1.56 μM, at 3.13 μM, 6.25 μM, 12.5 μM, 25 μM, 50 μM, and 100 μM (top sensor) concentrations (left panel) and at 3.13 μM, 6.25 μM, 12.5 μM, 25 μM, 50 μM, and 100 μM (top sensor) concentrations (right panel).
# To obtain in vitro confirmation of the binding of the isolated compounds to the purified RACK1 protein, the small compound SD-29 and its structural analog SD29-12 were evaluated for their binding potential with the recombinant RACK1A proteins using the Surface Plasmon Resonance (SPR) chip. SPR experiments were carried out with a Biacore T200 equipped with a CM5 sensor chip. Briefly, recombinant RACK1A cysteine-tagged protein was immobilized on flow cell (FC) 2 in HEPES buffered saline (10 mM Hepes, pH 7.4, and 150 mM NaCl, 3 mM CaCl2)) using a thiol-coupling kit according to the manufacturer's protocol, resulting in immobilization levels of 4580 response units (RU). FC1 was only activated and inactivated and used as a reference. SD-29 stock solution was diluted to a final concentration of 100, 75, 50, 25, 10 μM and 1 μM injected in 10 mM Hepes, 150 mM NaCl, 3 mM CaCl2), 1% DMSO, and 0.5% P20. Each injection was repeated three times for 60 s. […] KD50 is calculated by the equation: KD50=kd/ka; kd—dissociation rate constant, ka—association rate constant. […]
compound,measurement,setting,value
Nn1c(S)nnc1-c1ccc(F)cc1 [SD-29],"HSV-1 protein production (ICP0, ICP8, gD)",HSV-1,repressed HSV-1 protein production
same,pKd,[1],4.38
